Measurements as given in US20260072027A1, “Peptides And Method” (Queen Mary University of London, priority 2022, published 2026).
“Also recorded” adds a separate entry of the source. Where no end group is shown, it is not given here.

Key:
[1] = tested on: autoantibodies to oxPTM-INS; test: Competitive displacement ELISA, plate coated with oxidised insulin; type: binding, human; settings: for inhibition of type 1 diabetes serum binding to oxPTM-INS (in words): sera pre-incubated with peptide competitor
Procedure: A competitive displacement assay was performed to map the exact epitope, namely the exact amino acid sequence binding specificities and to test the binding to native peptides versus oxidised insulin peptides. The binding to the peptide was done by direct ELISA on the native or modified peptides or by competition ELISA. Initially native synthetic peptide was oxidised by exposing to 0.05 mM CuCl2; 90 mM H2O2; 10 mM NaOCl. Native and modified peptides were fractionated by AKTA to evaluated changes in molecular profile. AKTA fractions were then tested by ELISA for reactivity (FIGS. 2 and 3). We next perform competition ELISA with the native peptides and peptides exposed to 0.05 mM CuCl2; 90 mM H2O2; 10 mM NaOCl. Serum samples were pre-incubated with either native insulin peptides or oxidised insulin peptides. Finally, based on the amino acid sequence of the identified peptides we predicted the amino acids that would be oxidised by ^●OH and HOCl and designed synthetic peptides that contain the oxidised amino acids in the synthesis. Synthetic peptides were produced by standard commercially available methods, specifically by Peptide Protein Research Ltd. Briefly, peptide synthesis was performed by automated solid phase peptide synthesis (SPPS), which was followed by purification. Each individual amino acid was added to the growing chain according to the sequence. Where specified, dihydroxyphenylalanine was added to replace Tyr or cysteate were added to replace Cys. Similarly, these peptides were tested by competition ELISA. The table below describe the different competition ELISA performed:
Serum samples from children with type 1 diabetes were pre-incubated with the synthetic peptides before they were added to the native insulin or oxidised that were previously coated on the ELISA plate. If the antibodies in the serum sample bind to the peptide they will no longer bind to the insulin or oxidised insulin on the plate-competition ELISA. 1:200 dilutions of serum samples from T1D serum samples were pre-incubated for 2 hr at room temperature with the various peptides as shown in the table above. After incubation, serum/peptide mix was added to the ELISA plate previously coated overnight with either native insulin or oxidised insulin for an additional 2 hr incubation. Plates were then washed in a plate washer three times with PBS 0.05% tween. After washing, 100 ul of anti-human IgG diluted 1:1000 in 1% milk-PBS 0.05% tween were added for additional 1 hour and 30 min incubation. After washing, ELISA was developed by adding 100 ul of TMB (10 mg/ml in DMSO) in 10 ml of 0.1 M sodium acetate plus 2 ul of H2O2. Reaction was stopped by adding 0.5 M H2SO4 (usually 20 min for insulin ELISA).
To assess the binding specificity of serum samples to identified peptides, a competitive ELISA was performed. The ELISA was carried out following the method described above, except that the serum samples were pre-incubated for 2 h with and without 10 μg/ml peptides as competitors, before adding the serum samples to the insulin coated ELISA plate.

[2] = tested on: serum IgG autoantibodies; test: ELISA for autoantibody detection: serum antibody binding to native and oxPTM insulin peptides; set-up: species or system human; settings: for % binders, Healthy controls / Mean ± SEM (absorbance, OD), Healthy controls / % binders, Type 1 diabetes: Study cohort 1; for % binders, Type 1 diabetes: cut-off = mean of healthy controls to Nt-INSP plus 3 SEM; for Mean ± SEM (absorbance, OD), Type 1 diabetes: Study cohort 1 sera
Procedure: ELISA for autoantibody detection. The ELISA analysis of Nt-INS and oxPTM-INS autoantibodies was performed as previously described [18](detailed in ESM methods, ELISA assay for antibody detection).
Statistical analyses. Statistical analyses were performed using Prism Software 9.0 (GraphPad, San Diego, CA, USA). Cut-off points of positivity (binders) in the antibody ELISA for each peptide were defined by the mean of optical absorbance (O.D) of healthy controls to the corresponding Nt-INSP plus three times the standard error of the mean (SEM). Specificity and sensitivity were evaluated by receiver operating characteristic (ROC) curve analysis. Area under the curve (AUC) is reported as absolute value and was tested for equality according to DeLong et al. Differences in antibody levels and T-cell stimulation indices (SI) between groups were tested by the One way ANOVA or Student's t-tests as appropriate. Correlation analyses were tested by Pearson or Spearman's test, as appropriate. Categorical analyses were performed by Chi-square or McNemar's tests, as appropriate. For each set of experiments, p values were adjusted for multiple comparison using the Holm-Sidak's test. Hierarchical cluster and Principal Component Analysis (PCA) was done using Clustvis software (https://biit.cs.ut.ee/clustvis/) and Prism Software 9.0, respectively.
Antibody reactivity of type 1 diabetes serum against the candidate oxPTM-INSP. Identified peptide candidates were synthesised and exposed to either HOCl or ^●OH to generate oxPTM-INSPs that were first assessed by TOF-MS/ES+TIC to confirm modification (FIG. 17). Antibody response against native INSPs (Nt-INSPs) and oxPTM-INSPs was evaluated by ELISA using sera from Study cohort 1.
ESM Methods ELISA assay for antibody detection. The ELISA analysis of native (Nt-INS) and modified insulin (oxPTM-INS) was performed as previously described. Briefly, the ELISA plate was coated overnight at 4° C. with 100 μl per well of modified or native insulin in 0.05 M carbonate/bicarbonate buffer pH 9.6 at 10 μg/ml. The next day, the plates were washed 3 times with 0.1% Tween PBS, followed by blocking for 2 hours at room temperature with 200 μl per well of 5% BSA in 0.1% Tween PBS. After washing, 100 μl of 1:200-diluted serum samples in 5% BSA-0.1% Tween PBS were added for additional 2 hours incubation. ELISA plates were then washed 3 times with 0.1% Tween PBS followed by probing with anti-human IgG horse radish peroxidase conjugated (HRP, Sigma) at 1:1,000 dilution in 5% BSA-0.1% Tween PBS for another 1.5 hours incubation. The ELISA plates were washed, and 100 μg/ml TMB substrate in 0.1M sodium acetate pH 6.0 plus 2 μl/10 ml of H2O2, were added. Subsequently, the reaction was stopped with 20% v/v sulphuric acid. The optical density (O.D.) was measured at 450 nm using a GENios plate reader and Magellan software (TECAN, Dorset, UK).

[3] = tested on: CD4+ T-cells (PBMCs); test: In vitro peptide stimulation and T-cell proliferation assay, CD4+; type: cell-based, human
From the text: (§1) In vitro peptide stimulation and T-cell proliferation assay. Peripheral blood mononuclear cells (PBMCs) were freshly isolated from type 1 diabetes and healthy individuals using Ficoll-Hypaque density gradient centrifugation. PBMCs were labelled with the fluorescent dye CellTrace Violet (Invitrogen, Thermo Fisher Scientific) and cultured (2×10^5 cells/well) in round-bottom 96-well plates (Falcon, Becton Dickinson) with RPMI-1640 medium (Gibco, Thermo Fisher Scientific) supplemented with 5% autologous plasma in the presence or not of insulin peptides (20 μg/ml); PPD (10 μg/ml) and anti-CD3 (0.1 μg/ml; clone OKT3) were used as positive control. Two scrambled peptides: […] (SEQ ID NO: 17), […] (SEQ ID NO: 18), and the Exendin 9-39 fragment were used as negative controls. After 7 days, PBMCs were stained with PE-Cy7 anti-CD8 (clone RPA-T8, BD Pharmingen) and FITC anti-CD3 (clone UCHT1, BD Pharmingen). Samples were analysed by using a FACSCanto II (BD Bioscience) to evaluate T-cell proliferation measured as CellTrace Violet dilution. Cytofluorimetric analyses were performed using FlowJo Software (FlowJo, LLC). The results were given as stimulation index (SI), calculated as percentage of stimulated T-cell subset proliferation/percentage of unstimulated T-cell subset proliferation. Assay for detection of peptide specific T cells subsets was done as previously described (detailed in ESM methods, Assay for detection of peptide specific T cells)
(§2) T-cell stimulation with oxPTM-INSPs. To evaluate the immune cell response against the oxPTM-INSPs, we performed CD4+ and CD8+ T cells proliferation experiments using freshly isolated PBMCs (Study cohort 2, Table 1). Response was calculated as stimulatory index (SI) over unstimulated T-cells.

[4] = tested on: CD8+ T-cells (PBMCs); test: In vitro peptide stimulation and T-cell proliferation assay, CD8+; type: cell-based, human
From the text: as §1, §2

[5] = tested on: CD4+ and CD8+ T-cells and IgG autoantibodies; test: Overlap of CD4+, CD8+ and IgG antibody responses (Venn analysis); type: cell-based, human; settings: type 1 diabetes
From the text: FIG. 13. Venn diagrams of CD4^+, CD8^+ and antibody response to oxPTM-INSPs. Panels a, b, and c show the overlap between IgG autoantibody and T-cell (CD4^+ and CD8^+) responses specific to oxPTM-INSP-3 (a), Nt-INSP-4 (b) and oxPTM-INSP-6 (c). Panels d, e, and f display the overlap between T-cell responses to the three insulin peptides and IgG to oxPTM-INS modified by hydroxyl radical (^●OH-INS). […] There is concordance between reactivity to oxPTM-INS and CD4^+ and CD8^+ reactivity for all three tested peptides (7/17, 8/18 and 8/18 for oxPTM-INSP-3, Nt-INSP-4 and oxPTM-INSP-6, respectively). The stimulatory index >1 was used for definition of positive T-cell response.
Correlation between T-cell stimulation and antibody response. Subjects evaluated for T-cell stimulation were also tested for antibody reactivity to either oxPTM-INSPs or oxidised intact insulin (oxPTM-INS) to assess correlations between humoral and cellular responses (FIG. 11-e-f). In study cohort 2, antibody reactivity to oxPTM-INSP-6 was the highest as observed in the study cohort 1, with 11/18 (61.1%) binding to at least one oxPTM-INSP-6 derivatives (p<0.001 oxPTM-INSP-6 vs. Nt-INSP-6). Detailed analysis of autoantibody response in this cohort is described in the ESM (ESM results Antibody binding to oxPTM-INSPs in Study cohort 2).
We then analysed the extent of correlation between CD4^+, CD8^+ and IgG antibody responses. […] The CD4^+ T cell response to Nt-INSP-4 frequently overlapped with CD8^+ (13/18 [72.2%]), and to a lesser extent to antibodies (7/18 [38.8%]). […] CD4^+ response to oxPTM-INSP-6 was linked to both CD8^+ and/or antibodies: […] patients had concordant CD4^+ and CD8^+ responses, while 9/18 (50%) patients had concordant CD4^+ and antibody responses. […] CD4^+ T-cell stimulation to Nt-INSP-4, oxPTM-INSP-6 and oxPTM-INSP-3 was associated with antibody reactivity to oxPTM-INS in 8/18 (44.4%), 8/18 (44.4%) and 7/18 (38.9%) type 1 diabetes patients.

[6] = target: Serum IgG autoantibodies of subjects with type 1 diabetes (human); test: competitive ELISA, T1D serum pre-incubated with peptide, plate coated with oxidised insulin (Example 3)
[7] = target: Serum IgG autoantibodies of subjects with type 1 diabetes (human); test: competitive ELISA, T1D serum pre-incubated with peptide, plate coated with oxidised insulin (FIG. 2A)

SLYQLENYCN (Ac-SLYQLENYCN) [insulin A:12-21 native peptide]
inhibition of type 1 diabetes serum binding to oxPTM-INS (in words) [1]: not
% binders, Healthy controls ([2]; in house modifications): 19%
Mean ± SEM (absorbance, OD), Healthy controls ([2]; in house modifications): 0.333 ± 0.030
% binders, Type 1 diabetes ([2]; in house modifications): 42%
% binders, Healthy controls ([2]; in silico modifications): 9%
Mean ± SEM (absorbance, OD), Healthy controls ([2]; in silico modifications): 0.143 ± 0.007
% binders, Type 1 diabetes ([2]; in silico modifications): 49%
Mean ± SEM (absorbance, OD), Type 1 diabetes ([2]; in house modifications): 0.405 ± 0.029
Mean ± SEM (absorbance, OD), Type 1 diabetes ([2]; in silico modifications): 0.242 ± 0.019
CD4+ T-cell response, subjects with SI > 1 (%) ([3]; Controls (N = 11)): (54.5%)
CD4+ T-cell response, subjects with SI > 3 (%) ([3]; Controls (N = 11)): (18.2%)
CD4+ T-cell response, subjects with SI > 5 (%) ([3]; Controls (N = 11)): (9.1%)
CD4+ T-cell response, subjects with SI > 10 (%) ([3]; Controls (N = 11)): (0.0%)
CD4+ T-cell response, subjects with SI > 1 (%) ([3]; Type 1 diabetes (N = 18)): (72.2%)
CD4+ T-cell response, subjects with SI > 3 (%) ([3]; Type 1 diabetes (N = 18)): (27.8%)
CD4+ T-cell response, subjects with SI > 5 (%) ([3]; Type 1 diabetes (N = 18)): (21.1%)
CD4+ T-cell response, subjects with SI > 10 (%) ([3]; Type 1 diabetes (N = 18)): (16.7%)
CD8+ T-cell response, subjects with SI > 1 (%) ([4]; Controls (N = 11)): (36.4%)
CD8+ T-cell response, subjects with SI > 3 (%) ([4]; Controls (N = 11)): (36.4%)
CD8+ T-cell response, subjects with SI > 5 (%) ([4]; Controls (N = 11)): (36.4%)
CD8+ T-cell response, subjects with SI > 10 (%) ([4]; Controls (N = 11)): (18.2%)
CD8+ T-cell response, subjects with SI > 1 (%) ([4]; Type 1 diabetes (N = 18)): (50.0%)
CD8+ T-cell response, subjects with SI > 3 (%) ([4]; Type 1 diabetes (N = 18)): (22.2%)
CD8+ T-cell response, subjects with SI > 5 (%) ([4]; Type 1 diabetes (N = 18)): (11.1%)
CD8+ T-cell response, subjects with SI > 10 (%) ([4]; Type 1 diabetes (N = 18)): (5.6%)

oxPTM-INSP-6: oxidised forms of insulin peptide 6 (B:21-30), in house oxidised or in silico derivatives (ERGFFYTPKT; not fully specified (N-terminus); also: oxidised forms, in house oxidised or in silico derivatives, modified residues not defined)
inhibition of type 1 diabetes serum binding to oxPTM-INS (in words) [1]: strongly inhibited binding to oxPTM-INS; also recorded: able to inhibit the binding
reduced binding to oxidised whole insulin ([1]; type 1 diabetes sera pre-incubated with peptide): 35-75%
concordance between reactivity to oxPTM-INS and CD4+ and CD8+ reactivity (patients/patients) ([5]; Study cohort 2): 8/18
patients with CD4+ T-cell stimulation associated with antibody reactivity to oxPTM-INS ([5]; Study cohort 2): 44.4%
patients with CD4+, CD8+ T-cells to the peptide and autoantibodies to oxPTM-INS simultaneously ([5]; Study cohort 2): 33.3%
patients with concordant CD4+ and antibody responses to the peptide ([5]; Study cohort 2): 50%
patients with concordant CD4+, CD8+ and IgG antibody response to the peptide ([5]; Study cohort 2): 44.4%
patients with overlapping (concordant) CD4+ and CD8+ responses to the peptide ([5]; Study cohort 2, SI >1): 72.2%
CD4+ T-cell response, subjects with SI > 3 (%) ([3]; Type 1 diabetes (N = 18)): 66.7%
CD8+ T-cell response, subjects with SI > 1 (%) ([4]; Controls (N = 11)): 27.3%
CD8+ T-cell response, subjects with SI > 1 (%) ([4]; Type 1 diabetes (N = 18)): 72.2%

B1: oxPTM-INSP-3, peptide 3 oxidised in house (oxidant not specified at the place) (peptide)
peptide: SLYQLENYCN
modifications: not fully specified (N-terminus); also: oxidised in house (CuCl2, H2O2, NaOCl), modified residues not defined
% reduction of serum binding to oxidised whole insulin [6]: 40 to 80%
% reduction of serum binding to oxidised whole insulin [7]: 35 to 80%
